According to patent US11179346B2, “Rupatadine-containing patch” (TEIKOKU SEIYAKU CO., LTD., priority 2017, dated 2021):

How the values were obtained:
[1] = Degree of solubility of rupatadine base in acrylic adhesive (gravimetric method, presence or absence of crystal); assay type: physicochemical; conditions: in acrylic adhesive (OH group), 100 μm plaster, crystal observed by microscope
Method: For comparison, the degree of solubility of the rupatadine base in an acrylic adhesive as an adhesive base was also investigated.
The degree of solubility of the rupatadine base in the acrylic adhesive was tested by a gravimetric method.
To 1 g (solid content) of the acrylic adhesive, the rupatadine base was added, and the mixture was stirred and degassed by ultrasonic wave.
The adhesive solution was applied so as to have a thickness of 100 μm, and dried. A plaster was observed by a microscope (manufactured by KEYENCE CORPORATION).
The degree of solubility was determined by the presence or absence of crystal.

[2] = Degree of solubility of rupatadine free base in each plaster ingredient (HPLC method); assay type: physicochemical
Text: Test Example 1: Investigation of Degree of Solubility of Rupatadine Free Base in Each Ingredient
The degree of solubility of a rupatadine free base (sometimes also referred to as “rupatadine base”) as an active ingredient in each plaster ingredient was investigated.
Levulinic acid as a solubilizer, oleyl oleate and isopropyl myristate (IPM) as a softener, and lauromacrogol (BL-4,2: polyoxyethylene lauryl ether) as a surfactant were selected. The degree of solubility of the rupatadine base in each ingredient was investigated.
To 5 mL of each of levulinic acid, oleyl oleate, isopropyl myristate (IPM), and lauromacrogol (BL-4,2), an excessive amount of the rupatadine base was added and stirred. The mixture was filtered through a 0.45-μm membrane filter, to remove an undissolved substance. To 200 μL of the filtrate, methanol was added using a measuring flask to adjust the volume to a desired volume. The mixture was measured by HPLC.
A rupatadine concentration was measured by an external calibration curve method, and the degree of solubility was calculated by specific gravity conversion.

Solubility (w/w %) [1]: ≤15 to 16< w/w % | Solubility (w/w %) ([2]; in isopropyl myristate (softener)): 2 w/w % | Solubility (w/w %) ([2]; in lauromacrogol (BL-4,2) (surfactant)): 4 w/w % | Solubility (w/w %) ([2]; in levulinic acid (solubilizer)): 29 w/w % | Solubility (w/w %) ([2]; in oleyl oleate (softener)): 2 w/w %
SMILES: Cc1cncc(CN2CCC(=C3c4ccc(Cl)cc4CCc4cccnc43)CC2)c1 [rupatadine base, 8-chloro-11-[1-[(5-methyl-3-pyridinyl)methyl]-piperidin-4-ylidene]-6,11-dihydro-5H-benzo[5,6]cyclohepta[1,2-b]pyridine]
